Measurements taken from patent US8394775B2 (Amorepacific Corporation, priority 2005, dated 2013).

Legend:
procollagen type (I) = test: Promotion of collagen biosynthesis in fibroblasts (procollagen type (I) ELISA); format: cell-based; conditions: 24 hours, compared to 100 of the non-treatment group
Description: Firstly, fibroblasts (PromoCell, Germany) were seeded in a 24 well plate at a level of 10^5 per well and cultured until they grew up to 90%. […] The supernatant was taken and examined for increase and decrease of procollagen using procollagen type (I) ELISA kit (proc/; ollagen type (I)). The result is shown in Table 3, in which the synthesis is compared to 100 of the non-treatment group.

collagenase = test: Inhibition of collagenase expression in human fibroblasts; format: cell-based; conditions: molar concentration of 10^−4, 24 hours, compared to 100 of the non-treatment group
Description: (§1) Firstly, human fibroblasts were seeded in a 96-well microtiter plate containing DMEM supplemented with 2.5% fetal bovine serum at a level of 5000 cells per well and cultured until they grew up to 90%.
Then, the culture fluid was examined for formation of collagenase using a commercially available collagenase measuring kit (Amorsham pharmacia, USA).
(§2) Firstly, the taken cell culture fluid was added to the 96-well plate having the primary collagenase antibody evenly applied and left for antigen-antibody reaction in a thermostat for 3 hours. After 3 hours, the secondary collagen antibody having a chromophore bonded thereto was added to the 96-well plate and left for reaction for 15 minutes. After 15 minutes, a color developing agent was added and left for 15 minutes. Then, 1M sulphuric acid was added to quit the reaction (color development), upon which the color of the reaction became yellow. The yellow level varied according to the progress of the reaction.
The absorption of the 96-well plate of the yellow color was measured at 405 nm using a spectrophotometer. The expression of collagenase was calculated according to the following Equation I. Here, the absorption of the control was the absorption of the cell culture fluid taken from the group which had not been treated with the test materials. Expression of collagenase (%) (A/B)×100 [Equation I] • (A: absorption of cells treated with the test materials B: absorption of control)
Meanwhile, the result of measurement of inhibition effect of the test materials on collagenase expression in human fibroblasts is shown in Table 4, in which in which the expression of collagenase is compared to 100 of the non-treatment group.

elastase = test: Inhibition of elastase expression in human fibroblasts; format: cell-based; conditions: molar concentration of 10^−4, 24 hours, compared to 100 of the non-treatment group
Description: as §1
Then, the culture fluid was examined for formation of elastase using a commercially available elastase measuring kit (Amorsham pharmacia, USA).
as §2, with “elastase” for “collagenase”
The absorption of the 96-well plate of the yellow color was measured at 405 nm using a spectrophotometer. The expression of elastase was calculated according to the following Equation II. Here, the absorption of the control was the absorption of the cell culture fluid taken from the group which had not been treated with the test materials. Expression of elastase (%)=(A/B)×100 [Equation II] • (A: absorption of cells treated with the test materials B: absorption of control)
Meanwhile, the result of measurement of inhibition effect of the test materials on elastase expression in human fibroblasts is shown in Table 5, in which the expression of elastase is compared to 100 of the non-treatment group.

[1] = test system: pigment cells (Mel-Ab cell); test: Inhibition of melanin synthesis using pigment cell of mouse; format: cell-based; conditions: 10 ppm for continuous 3 days, non-treatment group given as 100.0
Text: Here, hydroquinone was a positive control.

human skin = test: Whitening effect on human skin after UV-induced darkening; format: in vivo; conditions: 1% applied on UV-darkened upper arm skin, 10 weeks, colorimeter
Description: Firstly, 12 healthy males were enlisted for the test. They had opaque tape with a 1.5 cm hole attached on the upper arm. UV rays 1.5 to 2 times greater than the minimal erythema dose were irradiated to induce darkening of the skin.
For 10 weeks, the change was observed. Every 1 week, the color of the skin was measured by colorimeter CR2002 (Japan, Minolta)
Then, the difference of skin color (ΔL*) between the point when the application of the test material was initiated and the point when the application of the test material was completed was calculated according to the following equation and the result is shown in Table 7. Meanwhile, the whitening effect was determined by comparison of ΔL* between the sample applied part and the control. When ΔL* value is about 2, the whitening of the pigmentation was significant. When ΔL* is over 1.5, it was considered that the sample had whitening effect. ΔL*=(L*at the point when the application is completed)−(L*at the point when the application is initiated) [Equation 4]

[2] = test system: Human keratinocytes HaCaT cell line; test: Inhibition of reactive oxygen species (ROS) production using fluorescent material (DCFH-DA), UVB irradiation; format: cell-based; conditions: HaCaT cells, UVB 30 mJ/cm^2, DCF fluorescence
Description: The cell lines used in the test was Human keratinocytes HaCaT cell line. The cells were distributed to a 96 well black plate for fluorescence measurement at 2.0×10^4 per each well and cultured in DMEM (Dulbeccos Modification of Eagles Medium, FBS 10%) supplemented with penicillin/streptomycin at 37° C., 5% CO2 for 1 day, followed by treatment with test samples. Serum free DMEM (FBS free) supplemented with penicillin/streptomycin as shown in Table 2 was used for cultivation of the medium which had been treated with samples. The cultivation was performed at 37° C., 5% CO2 for 1 day.
After cultivation of 24 hours with test samples, the plate was washed with HCSS (HEPES-buffered control salt solution) to remove the medium and the HCSS was treated with 100 μl of 20 μM DCFH-DA (2′,7′-dichlorodihydro-fluorescein diacetate, Molecular Probes, Inc). Then, the plate was kept under conditions of 37° C., 5% CO2 for 20 minutes and washed with HCSS. Next, the plate was treated with 100 μl of HCSS comprising samples at different concentrations and the fluorescence intensity of DCF (dichlorofluorescein), which had been oxidized […] at the early stage, was measured using a fluorescent plate reader (Ex=485 nm, Em=530 nm). The fluorescence, right after the irradiation of UVB (30 mJ/cm^2) or 3 hours later of the irradiation, was measured using a fluorescent plate reader (Ex=485 nm, Em=530 nm).
As control, Trolox was used.

[3] = DPPH test of anti-oxidant effect; format: biochemical; conditions: read-out: DPPH analysis IC50 (concentration, upon which the absorption is decreased to 50%); 100 μM DPPH in ethanol, 37° C., 30 minutes, absorption at 540 nm
Description: A method for evaluating anti-oxidant effect through change of absorption generated by reduction of the organic radical DPPH (1,1-diphenyl-2-picryl hydrazyl) (while anti-oxidant is oxidized) is used. The change of absorption, which was decreased when the oxidization of DPPH was inhibited, was measured, as compared to the control.
The absorption was measured at 540 nm. The control sample was synthesized anti-oxidant Trolox, commonly used.

Compound | Synthesis (%) of procollagen (procollagen type (I)) | Expression of collagenase (%) (collagenase) | Expression of elastase (%) (elastase) | Melanin content (% of untreated control) [1] | Whitening effect (ΔL*) (human skin) | Inhibition effect on ROS production (control %) ([2]; 6.25 uM) | Inhibition effect on ROS production (control %) ([2]; 12.5 uM) | Inhibition effect on ROS production (control %) ([2]; 25 uM) | Inhibition effect on ROS production (control %) ([2]; 50 uM) | IC50 [3] | activity at 6.25 µM ([2]; Homo sapiens, light or radiation study, 6.25 uM, read-out: Inhibition effect on ROS production (control %)) | activity at 12.5 µM ([2]; Homo sapiens, light or radiation study, 12.5 uM, read-out: Inhibition effect on ROS production (control %)) | activity at 25 µM ([2]; Homo sapiens, light or radiation study, 25 uM, read-out: Inhibition effect on ROS production (control %)) | activity at 50 µM ([2]; Homo sapiens, light or radiation study, 50 uM, read-out: Inhibition effect on ROS production (control %))
O=C(O[C@@H]1Cc2c(O)cc(O)cc2O[C@@H]1c1cc(O)c(O)c(O)c1)c1cc(O)c(O)c(O)c1 [EGCG, reference compound] | 125% | 60% | 68% | – | – | – | – | – | – | – | – | – | – | –
Oc1ccc(O)cc1 [Hydroquinone, hydroquinone, reference compound] | – | – | – | 41.1% | 1.90 ± 0.11 | – | – | – | – | – | – | – | – | –
COc1ccc(-c2oc3c(CC=C(C)C)c(O[C@@H]4O[C@H](CO)[C@@H](O)[C@H](O)[C@H]4O)cc(O)c3c(=O)c2O[C@@H]2O[C@@H](C)[C@H](O)[C@@H](O)[C@H]2O)cc1 [Icariin] | 117% | 81% | 87% | 84.5% | 1.10 ± 0.13 | 98.1% | 89.7% | 88.6% | 86.3% | – | – | – | – | –
COc1ccc(-c2oc3c(CC=C(C)C)c(O)cc(O)c3c(=O)c2O[C@@H]2O[C@H](C)[C@@H](O)[C@H](O)[C@@H]2O)cc1 [Icariside II] | 138% | 66% | 63% | 38.2% | 1.83 ± 0.25 | 63.2% | 62.0% | 56.6% | 46.6% | 7.15 µM | – | – | – | –
COc1ccc(-c2oc3c(CC=C(C)C)c(O[C@@H]4O[C@H](CO)[C@@H](O)[C@H](O)[C@H]4O)cc(O)c3c(=O)c2O)cc1 [Icariside I] | 145% | 64% | 56% | 38.6% | 1.88 ± 0.17 | 65.6% | 61.4% | 54.8% | 43.8% | 7.78 µM | – | – | – | –
COc1ccc(-c2oc3c(CC=C(C)C)c(O)cc(O)c3c(=O)c2O)cc1 [Icaritin] | 146% | 66% | 55% | 39.5% | 1.89 ± 0.25 | 68.2% | 61.5% | 51.7% | 43.2% | 6.75 µM | – | – | – | –
Cc1c(C)c2c(c(C)c1O)CCC(C)(C(=O)O)O2 (stereo not shown) [Trolox, reference compound] | – | – | – | – | – | – | – | – | – | 8.63 µM | 76.9% | 74.6% | 73.3% | 58.5%
tocopherol [reference compound] | 118% | 75% | 88% | – | – | – | – | – | – | – | – | – | – | –
